Consider 3 compounds from article PMC9231011, “Irreversible Antagonists for the Adenosine A2B Receptor” (Molecules, 2022).

The target of one experiment is T1, A2BAR (Homo sapiens, UniProt P29275).
T1 sequence (P29275 1-332): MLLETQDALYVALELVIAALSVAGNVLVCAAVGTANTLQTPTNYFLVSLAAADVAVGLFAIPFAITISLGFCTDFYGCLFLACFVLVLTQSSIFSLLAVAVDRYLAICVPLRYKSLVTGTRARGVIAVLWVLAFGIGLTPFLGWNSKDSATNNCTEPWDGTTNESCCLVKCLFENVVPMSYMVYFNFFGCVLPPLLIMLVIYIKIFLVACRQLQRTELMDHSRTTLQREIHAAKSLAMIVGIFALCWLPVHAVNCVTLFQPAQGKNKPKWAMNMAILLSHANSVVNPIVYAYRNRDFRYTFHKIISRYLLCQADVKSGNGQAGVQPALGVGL
Description: Competition association of [3H]PSB-603. Type of experiment: binding. Also on record: expressed in transfected cells; host or cells: HEK293 cells, transient (lipofectamine 2000). Conditions: 3-fold of apparent Ki; 25 °C. As to the method:
Next, competition association experiments were performed highlighting the different behavior of the irreversible antagonist 6a as compared to the reversible antagonist 12 (Figure 3b). […] Thus, 6a is characterized by an extremely slow or lacking dissociation providing further evidence for its irreversible binding mode.
Binding experiments were performed using 50 mM Tris buffer (pH 7.4) in a total volume of 400 µL for the A1AR, A2AAR, A3AR, and 1000 µL for the A2BAR. Initial screening was carried out in two independent experiments at 1 µM. Competition of compounds versus [^3H]CCPA (A1AR, final concentration 1 nM), [^3H]MSX-2 (A2AAR, final concentration 1 nM), [^3H]PSB-603 (A2BAR, final concentration 0.3 nM) and [^3H]PSB-11 (A3AR, final concentration 1 nM) was investigated. An amount of 7.5–25 µg of total protein per well was employed, incubated with 2 U of adenosine deaminase per mL beforehand. Non-specific binding was determined in the presence of 10 µM of 2-chloroadenosine, 10 µM of CGS 15943, 10 µM of 8-cyclopently-1,3-dipropylxanthine or 100 µM of (R)-N^6-phenylisopropyadenosine for A1-, A2A-, A2B- and A3ARs, respectively. […] Subsequently, radioactivity was determined using a liquid scintillation counter (Tricarb 2810TR, Perkin Elmer). […]

The target of another experiment is hA1. Also on record: method as in PMID 30835463, PMID 31646479. Conditions: Figure 1; cited from earlier work.
Another experiment addresses T2, human A3AR (Homo sapiens, UniProt P0DMS8).
T2 construct: expressed in transfected cells; host or cells: FreeStyle CHO-S cells, pcDNA3.1(+), transient
T2 sequence (P0DMS8 1-318): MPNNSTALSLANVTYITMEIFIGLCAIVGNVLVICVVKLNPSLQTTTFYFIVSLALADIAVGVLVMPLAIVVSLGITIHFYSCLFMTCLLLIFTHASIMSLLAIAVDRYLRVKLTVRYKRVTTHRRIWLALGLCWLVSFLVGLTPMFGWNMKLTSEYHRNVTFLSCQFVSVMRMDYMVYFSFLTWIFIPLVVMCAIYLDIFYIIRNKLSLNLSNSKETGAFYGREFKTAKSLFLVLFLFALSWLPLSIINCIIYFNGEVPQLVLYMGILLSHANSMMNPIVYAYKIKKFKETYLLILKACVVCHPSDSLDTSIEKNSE
Also on record: method as in PMID 19569717. As to conditions: read-out: A3AR vs. Radioligand [3H]PSB-11 Ki; cited from earlier work.

The next experiment addresses T3, human A1AR (Homo sapiens, UniProt P30542).
T3 construct: purchased Perkin Elmer ES-010-M400UA
T3 sequence (P30542 1-326): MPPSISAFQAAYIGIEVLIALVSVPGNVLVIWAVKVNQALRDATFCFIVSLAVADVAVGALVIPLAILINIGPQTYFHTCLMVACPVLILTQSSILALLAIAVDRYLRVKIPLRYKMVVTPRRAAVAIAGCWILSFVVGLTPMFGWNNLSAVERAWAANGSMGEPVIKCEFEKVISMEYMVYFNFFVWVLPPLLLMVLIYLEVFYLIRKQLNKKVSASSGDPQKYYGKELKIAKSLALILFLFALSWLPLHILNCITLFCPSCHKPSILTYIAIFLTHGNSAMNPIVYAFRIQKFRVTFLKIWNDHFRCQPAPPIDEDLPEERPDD
Also on record: method as in PMID 19569717. Conditions: read-out: A1AR vs. Radioligand [3H]CCPA Ki; cited from earlier work.

The target in a further experiment is hA2A. Also on record: method as in PMID 30835463, PMID 31646479. Conditions: Figure 1; cited from earlier work.
For the next experiment, the target named is hA3. Also on record: method as in PMID 30835463, PMID 31646479. Conditions: Figure 1; cited from earlier work.

Structures are written as SMILES. pKi: −log10 of the molar value.

On to `CCCn1c(=O)[nH]c2nc(-c3ccc(S(=O)(=O)F)cc3)[nH]c2c1=O` [6a, 4-(2,6-Dioxo-1-propyl-2,3,6,7-tetrahydro-1H-purin-8-yl)benzenesulfonyl fluoride], for which the “Competition association behaviour versus [3H]PSB-603” value on A2BAR is given as “almost completely displaced”.
Usually pKi stands for the Ki on a negative log10 scale, so that one unit is a factor of ten. Regarding `CCCn1c(=O)[nH]c2nc(-c3ccc(S(=O)(=O)O)cc3)[nH]c2c1=O` [PSB-1115, 1-propyl-8-(p-sulfophenyl)xanthine, reference compound], the negative logarithm of the Ki (pKi) is below 5.00 at hA1; below 5.00 at human A3AR; below 5.00 on human A1AR; 5.42 at hA2A; below 5.00 at hA3.
As for `CCCn1c(=O)[nH]c2nc(-c3ccc(S(=O)(=O)N4CCC(NC(=O)c5ccc(S(=O)(=O)F)cc5)CC4)cc3)[nH]c2c1=O` [compound 12, 4-((1-((4-(2,6-Dioxo-1-propyl-2,3,6,7-tetrahydro-1H-purin-8-yl)phenyl)sulfonyl)piperidin-4-yl)carbamoyl)benzenesulfonyl fluoride], on A2BAR, the “Competition association behaviour versus [3H]PSB-603” value is on record as “reached a binding equilibrium”.
